Reference: PubChem BioAssay (NCI)
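Briefly, cells in 96-well plates were exposed to five compound concentrations for 48 h, and endpoints were estimated by linear interpolation. Definition used: TGI = concentration required for complete inhibition of growth.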

Experiments:
Test in all cases: growth of human tumour cells (NCI), 48 h
786-0 renal = test system: 786-0 renal
A498 renal = test system: A498 renal
A549 NSCLC = test system: A549 NSCLC
ACHN renal = test system: ACHN renal
BT-549 breast = test system: BT-549 breast
CAKI-1 renal = test system: CAKI-1 renal
CCRF-CEM leukemia = test system: CCRF-CEM leukemia
COLO 205 colon = test system: COLO 205 colon
DU-145 prostate = test system: DU-145 prostate
EKVX NSCLC = test system: EKVX NSCLC
HCC-2998 colon = test system: HCC-2998 colon
HCT-116 colon = test system: HCT-116 colon
HCT-15 colon = test system: HCT-15 colon
HL-60(TB) leukemia = test system: HL-60(TB) leukemia
HOP-62 NSCLC = test system: HOP-62 NSCLC
HOP-92 NSCLC = test system: HOP-92 NSCLC
HS 578T breast = test system: HS 578T breast
HT29 colon = test system: HT29 colon
IGROV1 ovarian = test system: IGROV1 ovarian
K-562 leukemia = test system: K-562 leukemia
KM12 colon = test system: KM12 colon
LOX IMVI melanoma = test system: LOX IMVI melanoma
M14 melanoma = test system: M14 melanoma
MALME-3M melanoma = test system: MALME-3M melanoma
MCF7 breast = test system: MCF7 breast
MDA-MB-231 breast = test system: MDA-MB-231 breast
MDA-MB-435 = test system: MDA-MB-435
MDA-N = test system: MDA-N
MOLT-4 leukemia = test system: MOLT-4 leukemia
NCI-H226 lung = test system: NCI-H226 lung
NCI-H23 lung = test system: NCI-H23 lung
NCI-H460 lung = test system: NCI-H460 lung
NCI-H522 lung = test system: NCI-H522 lung
NCI/ADR-RES ovarian = test system: NCI/ADR-RES ovarian
OVCAR-3 ovarian = test system: OVCAR-3 ovarian
OVCAR-4 ovarian = test system: OVCAR-4 ovarian
OVCAR-5 ovarian = test system: OVCAR-5 ovarian
OVCAR-8 ovarian = test system: OVCAR-8 ovarian
PC-3 prostate = test system: PC-3 prostate
RPMI-8226 leukemia = test system: RPMI-8226 leukemia
SF-268 CNS = test system: SF-268 CNS
SF-295 CNS = test system: SF-295 CNS
SF-539 CNS = test system: SF-539 CNS
SK-MEL-2 melanoma = test system: SK-MEL-2 melanoma
SK-MEL-28 melanoma = test system: SK-MEL-28 melanoma
SK-MEL-5 melanoma = test system: SK-MEL-5 melanoma
SK-OV-3 ovarian = test system: SK-OV-3 ovarian
SN12C renal = test system: SN12C renal
SNB-19 CNS = test system: SNB-19 CNS
SNB-75 CNS = test system: SNB-75 CNS
SR leukemia = test system: SR leukemia
SW-620 colon = test system: SW-620 colon
T-47D breast = test system: T-47D breast
TK-10 renal = test system: TK-10 renal
U251 CNS = test system: U251 CNS
UACC-257 melanoma = test system: UACC-257 melanoma
UACC-62 melanoma = test system: UACC-62 melanoma
UO-31 renal = test system: UO-31 renal
RXF 393 renal = test system: RXF 393 renal

Measured: TGI

O=C1CC(c2cccc([N+](=O)[O-])c2)C2(C(=O)NC(=S)NC2=O)C(c2cccc([N+](=O)[O-])c2)C1 (stereo not drawn)
97.1 µM: CCRF-CEM leukemia
58.8 µM: SNB-19 CNS
59.9 µM: NCI-H226 lung
64.3 µM: CAKI-1 renal
60.6 µM: UACC-62 melanoma
81.4 µM: BT-549 breast
59.2 µM: HCC-2998 colon
> 100 µM: 786-0 renal | A498 renal | A549 NSCLC | ACHN renal | COLO 205 colon | DU-145 prostate | HCT-15 colon | HL-60(TB) leukemia | HOP-62 NSCLC | HOP-92 NSCLC | HT29 colon | IGROV1 ovarian | K-562 leukemia | KM12 colon | MDA-N | MOLT-4 leukemia | NCI-H23 lung | NCI-H460 lung | NCI/ADR-RES ovarian | OVCAR-3 ovarian | OVCAR-4 ovarian | OVCAR-5 ovarian | PC-3 prostate | RPMI-8226 leukemia | SF-295 CNS | SF-539 CNS | SK-MEL-2 melanoma | SK-MEL-28 melanoma | SK-MEL-5 melanoma | SK-OV-3 ovarian | SNB-75 CNS | SR leukemia | SW-620 colon | T-47D breast | UACC-257 melanoma | UO-31 renal
81.3 µM: U251 CNS
53.2 µM: MALME-3M melanoma
58.5 µM: M14 melanoma
43.6 µM: OVCAR-8 ovarian
34 µM: LOX IMVI melanoma
74.1 µM: EKVX NSCLC
66.2 µM: MDA-MB-435
50.9 µM: MCF7 breast
84.3 µM: HS 578T breast
43.7 µM: HCT-116 colon
43.4 µM: SF-268 CNS
52.3 µM: SN12C renal
89.6 µM: NCI-H522 lung
62.4 µM: MDA-MB-231 breast
47.7 µM: TK-10 renal

CC(C)=CCNc1ncnc2c1ncn2CCC(=O)O
> 100 µM: 786-0 renal | A498 renal | A549 NSCLC | ACHN renal | BT-549 breast | CCRF-CEM leukemia | COLO 205 colon | DU-145 prostate | HCC-2998 colon | HCT-116 colon | HCT-15 colon | HL-60(TB) leukemia | HOP-62 NSCLC | HOP-92 NSCLC | HS 578T breast | HT29 colon | IGROV1 ovarian | K-562 leukemia | KM12 colon | LOX IMVI melanoma | M14 melanoma | MALME-3M melanoma | MCF7 breast | MDA-MB-231 breast | MDA-MB-435 | MDA-N | MOLT-4 leukemia | NCI-H226 lung | NCI-H23 lung | NCI-H460 lung | NCI-H522 lung | NCI/ADR-RES ovarian | OVCAR-3 ovarian | OVCAR-4 ovarian | OVCAR-5 ovarian | OVCAR-8 ovarian | PC-3 prostate | RPMI-8226 leukemia | RXF 393 renal | SF-268 CNS | SF-295 CNS | SF-539 CNS | SK-MEL-28 melanoma | SK-MEL-5 melanoma | SK-OV-3 ovarian | SN12C renal | SNB-19 CNS | SNB-75 CNS | SR leukemia | SW-620 colon | T-47D breast | TK-10 renal | U251 CNS | UACC-62 melanoma | UO-31 renal
